Patent US20140314847A1, “CONTROLLED RELEASE PHARMACEUTICAL COMPOSITIONS WITH IMPROVED BIOAVAILABILILTY” (priority 2004, published 2014)

Test: In vitro dissolution study of acyclovir solubilized using various solubilizers
Type: physicochemical
Description: A solubilizing agent was melted in a container and a drug was added and mixed intimately and cooled to room temperature. The mass was sifted through an appropriate sieve to get a uniform blend. A blend of the drug was prepared using polyethylene glycol 6000, Lutrol F127 and Gelucire (50/13). Solid dispersion of the drug with various solubilizing agents like polyethylene glycol 6000, Lutrol F127 and Gelucire 50/13 were studied for their solubility in 900 ml distilled water. […] Also with Lutrol in ratio (1:0.5 to 1:2) a three-fold increase in instantaneous solubility was observed. These samples were taken for dissolution study and the result obtained are provided in Table 3 hereunder and graphically depicted in Figure-I: […]

Nc1nc2c(ncn2COCCO)c(=O)[nH]1 [Acyclovir as is, Acyclovir]
% drug dissolved (0 min): 0%
% drug dissolved (5 min): 16.03%
% drug dissolved (10 min): 19.58%
% drug dissolved (15 min): 24.09%
% drug dissolved (20 min): 29.34%
% drug dissolved (30 min): 33.89%
% drug dissolved (45 min): 47.11%
% drug dissolved (60 min): 53.78%
% drug dissolved (90 min): 68.87%
% drug dissolved (120 min): 75.40%
